Test results from ChEMBL document CHEMBL1921749, “5-Lipoxygenase-activating protein (FLAP) inhibitors. Part 4: development of 3-[3-tert-butylsulfanyl-1-[4-(6-ethoxypyridin-3-yl)benzyl]-5-(5-methylpyridin-2-ylmethoxy)-1H-indol-2-yl]-2,2-dimethylpropionic acid (AM803), a potent, oral, once daily FLAP inhibitor” (J Med Chem, 2011).
Blank lines part the entries; values can stand above or below the molecule they belong to.

Assays:
[1] = molecular target: T1, Arachidonate 5-lipoxygenase-activating protein (Homo sapiens, UniProt P20292); assay: Displacement of [3H]-3-[5-(pyrid-2-ylmethoxy)-3-tert-butylthio-1-benzylindol-2-yl]-2,2-dimethylpropionic acid from FLAP in human polymorphonuclear cell membranes after 1 hr by scintillation counting
T1 sequence (P20292 whole entry): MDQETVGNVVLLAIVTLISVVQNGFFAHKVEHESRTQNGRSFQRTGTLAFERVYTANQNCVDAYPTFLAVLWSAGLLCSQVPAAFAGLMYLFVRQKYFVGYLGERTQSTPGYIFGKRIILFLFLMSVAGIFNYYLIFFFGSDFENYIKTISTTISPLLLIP

[2] = molecular target: T1, Arachidonate 5-lipoxygenase-activating protein; assay: Inhibition of FLAP in human peripheral leukocytes assessed as inhibition of calcium ionophore A23187-induced LTB4 production after 10 mins by ELISA in presence of 0.5% human serum albumin; type: cell-based
[3] = molecular target: T1, Arachidonate 5-lipoxygenase-activating protein; assay: Inhibition of FLAP in human whole blood assessed as inhibition of calcium ionophore A23187-induced LTB4 production preincubated for 15 mins by ELISA
[4] = molecular target: T2, Arachidonate 5-lipoxygenase-activating protein (Rattus norvegicus, UniProt P20291); assay: Inhibition of FLAP in rat whole blood assessed as inhibition of calcium ionophore A23187-induced LTB4 production preincubated for 15 mins by ELISA; type: tissue-based
T2 sequence (P20291 whole entry): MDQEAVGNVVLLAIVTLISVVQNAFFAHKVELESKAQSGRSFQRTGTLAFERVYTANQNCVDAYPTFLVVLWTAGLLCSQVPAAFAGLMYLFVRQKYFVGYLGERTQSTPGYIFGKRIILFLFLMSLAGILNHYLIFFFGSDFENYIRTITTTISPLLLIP

[5] = molecular target: T1, Arachidonate 5-lipoxygenase-activating protein; assay: Inhibition of FLAP in human peripheral leukocytes assessed as inhibition of calcium ionophore A23187-induced LTB4 production after 10 mins by ELISA; type: cell-based
[6] = molecular target: T1, Arachidonate 5-lipoxygenase-activating protein; assay: Inhibition of FLAP in human peripheral leukocytes assessed as inhibition of calcium ionophore A23187-induced LTB4 production after 1 hr by ELISA in absence of human serum albumin; type: cell-based
[7] = molecular target: T1, Arachidonate 5-lipoxygenase-activating protein; assay: Inhibition of FLAP in human peripheral leukocytes assessed as inhibition of calcium ionophore A23187-induced LTB4 production after 5 mins by ELISA in absence of human serum albumin; type: cell-based
[8] = molecular target: T1, Arachidonate 5-lipoxygenase-activating protein; assay: Inhibition of FLAP in human whole blood assessed as inhibition of calcium ionophore A23187-induced LTB4 production preincubated for 11 hrs by ELISA
[9] = molecular target: T1, Arachidonate 5-lipoxygenase-activating protein; assay: Inhibition of FLAP in human whole blood assessed as inhibition of calcium ionophore A23187-induced LTB4 production preincubated for 5 hrs by ELISA
[10] = molecular target: T2, Arachidonate 5-lipoxygenase-activating protein; assay: Inhibition of FLAP in rat whole blood assessed as inhibition of calcium ionophore A23187-induced LTB4 production preincubated for 4 hrs by ELISA; type: tissue-based
[11] = molecular target: T1, Arachidonate 5-lipoxygenase-activating protein; assay: Inhibition of FLAP in human peripheral leukocytes assessed as inhibition of calcium ionophore A23187-induced LTB4 production after 3 hr by ELISA in presence of 0.5% human serum albumin; type: cell-based
[12] = molecular target: T3, Arachidonate 5-lipoxygenase-activating protein (Homo sapiens) (UniProt P20292); assay: Ratio of IC50 for FLAP in human whole blood assessed as inhibition of calcium ionophore A23187-induced LTB4 production preincubated for 15 mins to IC50 for FLAP in human whole blood assessed as inhibition of calcium ionophore A23187-induced LTB4 production preincubated for 5 hrs
T3 sequence (whole entry): T1 sequence (P20292 whole entry)

[13] = Oral bioavailability in Sprague-Dawley rat at 10 mg/kg; type: ADME, organism-based; conditions: in vivo
[14] = Terminal half life in Sprague-Dawley rat at 2 mg/kg, iv; type: ADME, organism-based; design: dose 2 mg/kg, route intravenous; conditions: in vivo, read-out: beta t1/2 (converted)
[15] = AUC in Sprague-Dawley rat at 10 mg/kg, po; type: ADME, organism-based; design: dose 10 mg/kg, route oral; conditions: plasma
[16] = Clearance in Sprague-Dawley rat at 2 mg/kg, iv; type: ADME, organism-based; design: dose 2 mg/kg, route intravenous; conditions: in vivo
[17] = Volume of distribution at steady state in Sprague-Dawley rat at 2 mg/kg, iv; type: ADME, organism-based; design: dose 2 mg/kg, route intravenous; conditions: in vivo, read-out: Vdss
[18] = Cmax in Sprague-Dawley rat at 10 mg/kg, po; type: ADME, organism-based; design: dose 10 mg/kg, route oral; conditions: in vivo
[19] = molecular target: T4, Prostaglandin G/H synthase 1 (Homo sapiens, UniProt P23219); assay: Inhibition of COX1-mediated TXB2 production in human whole blood after 15 mins by competitive enzyme immunoassay
T4 sequence (P23219 whole entry): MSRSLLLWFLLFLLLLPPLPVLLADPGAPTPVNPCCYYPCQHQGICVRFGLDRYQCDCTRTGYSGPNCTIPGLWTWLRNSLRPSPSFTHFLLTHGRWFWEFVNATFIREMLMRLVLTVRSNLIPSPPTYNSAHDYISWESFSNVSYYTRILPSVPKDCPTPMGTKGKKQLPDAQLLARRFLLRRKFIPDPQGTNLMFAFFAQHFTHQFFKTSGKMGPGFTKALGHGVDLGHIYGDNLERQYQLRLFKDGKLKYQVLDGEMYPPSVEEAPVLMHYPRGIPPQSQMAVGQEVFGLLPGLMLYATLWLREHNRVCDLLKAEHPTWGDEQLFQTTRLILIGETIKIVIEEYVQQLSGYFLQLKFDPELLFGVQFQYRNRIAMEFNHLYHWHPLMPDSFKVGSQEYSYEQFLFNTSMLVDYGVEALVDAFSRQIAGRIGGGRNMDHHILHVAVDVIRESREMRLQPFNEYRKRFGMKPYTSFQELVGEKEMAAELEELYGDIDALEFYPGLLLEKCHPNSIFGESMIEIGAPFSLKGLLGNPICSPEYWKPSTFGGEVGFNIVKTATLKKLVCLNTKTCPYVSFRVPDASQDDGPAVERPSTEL

[20] = molecular target: T4, Prostaglandin G/H synthase 1; assay: Inhibition of COX1-mediated TXB2 production in human whole blood after 5 hrs by competitive enzyme immunoassay
Cytochrome P450 2D6 = Cytochrome P450 2D6 (Homo sapiens, UniProt P10635); assay: Inhibition of human CYP2D6; type: ADME
Cytochrome P450 2D6, sequence (P10635 whole entry): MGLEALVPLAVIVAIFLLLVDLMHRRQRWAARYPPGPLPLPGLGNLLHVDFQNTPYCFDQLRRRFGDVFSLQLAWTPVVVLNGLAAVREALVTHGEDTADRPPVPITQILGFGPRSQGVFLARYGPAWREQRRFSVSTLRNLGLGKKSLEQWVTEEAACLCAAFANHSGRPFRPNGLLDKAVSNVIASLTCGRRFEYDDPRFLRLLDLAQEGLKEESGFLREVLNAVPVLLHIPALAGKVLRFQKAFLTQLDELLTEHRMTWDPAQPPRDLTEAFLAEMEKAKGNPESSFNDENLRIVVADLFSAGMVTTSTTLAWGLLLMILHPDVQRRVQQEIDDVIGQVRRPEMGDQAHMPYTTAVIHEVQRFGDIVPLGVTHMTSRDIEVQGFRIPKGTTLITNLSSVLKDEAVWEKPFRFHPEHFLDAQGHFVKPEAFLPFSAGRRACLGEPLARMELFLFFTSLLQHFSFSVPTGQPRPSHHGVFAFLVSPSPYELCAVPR

Cytochrome P450 2C9 = Cytochrome P450 2C9 (Homo sapiens, UniProt P11712); assay: Inhibition of human CYP2C9; type: ADME
Cytochrome P450 2C9, sequence (P11712 whole entry): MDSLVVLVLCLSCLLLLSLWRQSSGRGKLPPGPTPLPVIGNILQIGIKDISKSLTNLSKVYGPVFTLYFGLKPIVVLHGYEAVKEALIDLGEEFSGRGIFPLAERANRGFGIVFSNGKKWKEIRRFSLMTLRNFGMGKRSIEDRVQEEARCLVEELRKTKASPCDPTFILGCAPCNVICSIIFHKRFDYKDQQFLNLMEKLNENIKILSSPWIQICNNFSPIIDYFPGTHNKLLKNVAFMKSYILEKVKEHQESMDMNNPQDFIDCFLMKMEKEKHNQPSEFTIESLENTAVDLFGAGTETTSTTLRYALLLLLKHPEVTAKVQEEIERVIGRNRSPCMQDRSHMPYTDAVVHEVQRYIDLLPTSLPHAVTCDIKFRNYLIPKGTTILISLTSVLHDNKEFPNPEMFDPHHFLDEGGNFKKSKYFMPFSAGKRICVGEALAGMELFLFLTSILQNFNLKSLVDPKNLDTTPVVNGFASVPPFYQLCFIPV

Cytochrome P450 3A4 = Cytochrome P450 3A4 (Homo sapiens, UniProt P08684); assay: Inhibition of human CYP3A4; type: ADME
Cytochrome P450 3A4, sequence (P08684 whole entry): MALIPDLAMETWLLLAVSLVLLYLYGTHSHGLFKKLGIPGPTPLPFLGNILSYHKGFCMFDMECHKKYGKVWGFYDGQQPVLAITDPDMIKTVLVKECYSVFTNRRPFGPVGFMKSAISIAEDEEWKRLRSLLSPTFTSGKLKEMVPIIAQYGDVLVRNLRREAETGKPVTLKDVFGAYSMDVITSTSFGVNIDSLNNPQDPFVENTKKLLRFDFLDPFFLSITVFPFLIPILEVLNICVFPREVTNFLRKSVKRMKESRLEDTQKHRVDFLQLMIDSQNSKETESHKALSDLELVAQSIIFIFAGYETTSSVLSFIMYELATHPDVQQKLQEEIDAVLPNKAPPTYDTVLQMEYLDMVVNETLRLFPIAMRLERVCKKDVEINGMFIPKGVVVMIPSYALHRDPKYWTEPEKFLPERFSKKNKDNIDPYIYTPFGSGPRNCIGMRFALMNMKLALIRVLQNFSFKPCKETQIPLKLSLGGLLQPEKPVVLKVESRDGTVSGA

[21] = molecular target: T4, Prostaglandin G/H synthase 1; assay: Inhibition of COX1-mediated TXB2 production in human whole blood after 30 mins by competitive enzyme immunoassay

Structure (SMILES): CC(C)(C)Sc1c(CC(C)(C)C(=O)O)n(Cc2ccc(Cl)cc2)c2ccc(OCc3ccc4ccccc4n3)cc12 [QUIFLAPON SODIUM]
IC50 [1]: 1.9 nM | IC50 [2]: 66 nM | IC50 [3]: 536 nM | IC50 [4]: 117 nM | IC50 [5]: 0.5 nM | IC50 [6]: 1 nM | IC50 [7]: 1 nM | IC50 [8]: 80 nM | IC50 [9]: 108 nM | IC50 [10]: 10 nM | IC50 [11]: 12 nM

Structure (SMILES): CC(C)c1ccc2c(c1)c(SC(C)(C)C)c(CC(C)(C)C(=O)O)n2Cc1ccc(Cl)cc1
IC50 [2]: 19 nM | IC50 [3]: 1400 nM | IC50 [6]: 5.7 nM | IC50 [7]: 2.2 nM | IC50 [8]: 1000 nM | IC50 [9]: 1100 nM | IC50 [11]: 27 nM

Structure (SMILES): COc1ccc(-c2ccc(Cn3c(CC(C)(C)C(=O)O)c(SC(C)(C)C)c4cc(OCc5ccc6cc(F)ccc6n5)ccc43)cc2)cn1
IC50 [1]: 7.6 nM | Ratio IC50 [12]: 2 | IC50 [3]: 747 nM | IC50 [5]: 0.7 nM | IC50 [9]: 289 nM

Structure (SMILES): COc1cnc(-c2ccc(Cn3c(CC(C)(C)C(=O)[O-])c(SC(C)(C)C)c4cc(OCc5ccc(C)cn5)ccc43)cc2)nc1.[Na+]
bioavailability [13]: 100% | half-life [14]: 1.7 h | AUC [15]: 63000 ng·h/mL | clearance [16]: 3.1 mL/min/kg | Vd [17]: 0.18 L/kg | Cmax [18]: 30.6 µM

Continued, values first:

IC50 [1]: 8.3 nM | Ratio IC50 [12]: 8 | IC50 [3]: 10000 nM | IC50 [5]: 94 nM | IC50 [9]: 1280 nM
Structure (SMILES): Cc1ccc(COc2ccc3c(c2)c(SC(C)(C)C)c(CC(C)(C)C(=O)O)n3Cc2ccc(-c3ccc(=O)[nH]c3)cc2)nc1

bioavailability [13]: 100% | half-life [14]: 1.9 h | AUC [15]: 77000 ng·h/mL | clearance [16]: 4 mL/min/kg | Vd [17]: 0.38 L/kg | Cmax [18]: 23.3 µM
Structure (SMILES): Cc1ccc(COc2ccc3c(c2)c(SC(C)(C)C)c(CC(C)(C)C(=O)[O-])n3Cc2ccc(-c3ccc(F)cn3)cc2)nc1.[Na+]

IC50 [1]: 1.7 nM | IC50 [3]: 328 nM | IC50 [19]: 12300 nM | IC50 [5]: 0.5 nM | IC50 [9]: 87 nM | IC50 [20]: 17300 nM
Structure (SMILES): COc1ccc(-c2ccc(Cn3c(CC(C)(C)C(=O)O)c(SC(C)(C)C)c4cc(OCc5ccc(C)cn5)ccc43)cc2)cn1

IC50 [3]: 161 nM | IC50 [5]: 0.6 nM | IC50 (Cytochrome P450 2D6): > 50000 nM | IC50 [9]: 81 nM | IC50 (Cytochrome P450 2C9): 4500 nM | IC50 (Cytochrome P450 3A4): 8800 nM | IC50 [21]: 25000 nM
Structure (SMILES): COc1cnc(-c2ccc(Cn3c(CC(C)(C)C(=O)O)c(SC(C)(C)C)c4cc(OCc5ccc(C)cn5)ccc43)cc2)nc1

IC50 [1]: 2.2 nM | IC50 [3]: 283 nM | IC50 [5]: 0.5 nM | IC50 (Cytochrome P450 2D6): > 50000 nM | IC50 [9]: 130 nM | IC50 (Cytochrome P450 2C9): 12000 nM | IC50 (Cytochrome P450 3A4): 8500 nM
Structure (SMILES): Cc1ccc(COc2ccc3c(c2)c(SC(C)(C)C)c(CC(C)(C)C(=O)O)n3Cc2ccc(-c3ccc(C)cn3)cc2)nc1
